Test results as given in patent US20250101023A1, “HETEROARYL DERIVATIVE AND USES THEREOF” (IUCF-HYU (INDUSTRY-UNIVERSITY COOPERATION FOUNDATION …, priority 2022, published 2025).

What was measured:
[1] = target: GSK3b (Homo sapiens (Human), UniProt P49841); test: Kinome-wide profiling; type: biochemical; details: read-out: % Residual Activity (mean)
[2] = target: RSK1 (Homo sapiens (Human), UniProt Q15418); test: Kinome-wide profiling; type: biochemical; details: read-out: % Residual Activity (mean)
[3] = target: RET (Homo sapiens (Human), UniProt P07949); test: Kinome-wide profiling; type: biochemical; details: read-out: % Residual Activity (mean)
[4] = target: PKAcg (Homo sapiens (Human), UniProt P22612); test: Kinome-wide profiling; type: biochemical; details: read-out: % Residual Activity (mean)
[5] = target: DCAMKL1 (Homo sapiens (Human), UniProt O15075); test: Kinome-wide profiling; type: biochemical; details: read-out: % Residual Activity (mean)
[6] = target: TNK1 (Homo sapiens (Human), UniProt Q13470); test: Kinome-wide profiling; type: biochemical; details: read-out: % Residual Activity (mean)
[7] = target: CAMK1d (Homo sapiens (Human), UniProt Q8IU85); test: Kinome-wide profiling; type: biochemical; details: read-out: % Residual Activity (mean)
[8] = target: MAPKAPK5/PRAK (Homo sapiens (Human), UniProt Q8IW41); test: Kinome-wide profiling; type: biochemical; details: read-out: % Residual Activity (mean)
[9] = Body weight in SK-Br3 xenograft model; type: in vivo, mouse; details: 10 mg/kg and 20 mg/kg, i.p. twice a week
Protocol: A mouse efficacy experiment was conducted after obtaining approval from the Laboratory Animal Ethics Committee of GenNBio (Review No.: GN-IACUC-Research 22-02-07). SK-Br3 and HCC-1954 cells (1×10^6 cells each) mixed with Matrigel (BD Biosciences) were […] injected into 5-week-old female Balb/c nude mice (Orient Bio, Seongnam, Republic of Korea). After tumors reached a size of about 100 mm^3, the compound, trastuzumab (20 mg/kg), and the like were intraperitoneally injected into mice (n=8 per group)(vehicle: 8% DMSO, 4% Tween-80, 88% PBS). The tumor size was measured twice weekly for about 4 weeks and calculated as follows. Volume (mm^3)=(a×b^2)/2; “a”, maximum diameter; “b”, vertical diameter

[10] = target: DRAK1/STK17A (Homo sapiens (Human), UniProt Q9UEE5); test: Kinome-wide profiling; type: biochemical; details: read-out: % Residual Activity (mean)
[11] = target: PKCeta (Homo sapiens (Human), UniProt P24723); test: Kinome-wide profiling; type: biochemical; details: read-out: % Residual Activity (mean)
[12] = target: VRK1 (Homo sapiens (Human), UniProt Q99986); test: Kinome-wide profiling; type: biochemical; details: read-out: % Residual Activity (mean)
[13] = target: ZIPK/DAPK3 (Homo sapiens (Human), UniProt O43293); test: Kinome-wide profiling; type: biochemical; details: read-out: % Residual Activity (mean)
[14] = target: SNARK/NUAK2 (Homo sapiens (Human), UniProt Q9H093); test: Kinome-wide profiling; type: biochemical; details: read-out: % Residual Activity (mean)
[15] = target: TRKB (Homo sapiens (Human), UniProt Q16620); test: Kinome-wide profiling; type: biochemical; details: read-out: % Residual Activity (mean)
[16] = target: SGK1 (Homo sapiens (Human), UniProt O00141); test: Kinome-wide profiling; type: biochemical; details: read-out: % Residual Activity (mean)
[17] = target: BMPR2 (Homo sapiens (Human), UniProt Q13873); test: Kinome-wide profiling; type: biochemical; details: read-out: % Residual Activity (mean)
[18] = target: CSK (Homo sapiens (Human), UniProt P41240); test: Kinome-wide profiling; type: biochemical; details: read-out: % Residual Activity (mean)
[19] = target: Haspin (Homo sapiens (Human), UniProt Q8TF76); test: Kinome-wide profiling; type: biochemical; details: read-out: % Residual Activity (mean)
[20] = target: MYO3b (Homo sapiens (Human), UniProt Q8WXR4); test: Kinome-wide profiling; type: biochemical; details: read-out: % Residual Activity (mean)
[21] = target: VRK2 (Homo sapiens (Human), UniProt Q86Y07); test: Kinome-wide profiling; type: biochemical; details: read-out: % Residual Activity (mean)
[22] = target: KHS/MAP4K5 (Homo sapiens (Human), UniProt Q9Y4K4); test: Kinome-wide profiling; type: biochemical; details: read-out: % Residual Activity (mean)
[23] = target: CDK2/cyclin A (Homo sapiens (Human), UniProt P24941); test: Kinome-wide profiling; type: biochemical; details: read-out: % Residual Activity (mean)
[24] = target: FGFR1 (Homo sapiens (Human), UniProt P11362); test: Kinome-wide profiling; type: biochemical; details: read-out: % Residual Activity (mean)
[25] = target: SGK2 (Homo sapiens (Human), UniProt Q9HBY8); test: Kinome-wide profiling; type: biochemical; details: read-out: % Residual Activity (mean)
[26] = target: CLK1 (Homo sapiens (Human), UniProt P49759); test: Kinome-wide profiling; type: biochemical; details: read-out: % Residual Activity (mean)
[27] = target: IRAK1 (Homo sapiens (Human), UniProt P51617); test: Kinome-wide profiling; type: biochemical; details: read-out: % Residual Activity (mean)
[28] = target: CHK1 (Homo sapiens (Human), UniProt O14757); test: Kinome-wide profiling; type: biochemical; details: read-out: % Residual Activity (mean)
[29] = target: HIPK3 (Homo sapiens (Human), UniProt Q9H422); test: Kinome-wide profiling; type: biochemical; details: read-out: % Residual Activity (mean)
[30] = target: RIPK5 (Homo sapiens (Human), UniProt Q6XUX3); test: Kinome-wide profiling; type: biochemical; details: read-out: % Residual Activity (mean)
[31] = target: FAK/PTK2 (Homo sapiens (Human), UniProt Q05397); test: Kinome-wide profiling; type: biochemical; details: read-out: % Residual Activity (mean)
[32] = target: DCAMKL2 (Homo sapiens (Human), UniProt Q8N568); test: Kinome-wide profiling; type: biochemical; details: read-out: % Residual Activity (mean)
[33] = target: NIM1 (Homo sapiens (Human), UniProt Q8IY84); test: Kinome-wide profiling; type: biochemical; details: read-out: % Residual Activity (mean)
[34] = target: LOK/STK10 (Homo sapiens (Human), UniProt O94804); test: Kinome-wide profiling; type: biochemical; details: read-out: % Residual Activity (mean)
[35] = target: CK1d (Homo sapiens (Human), UniProt P48730); test: Kinome-wide profiling; type: biochemical; details: read-out: % Residual Activity (mean)

Chain of PKCeta (P24723 whole entry): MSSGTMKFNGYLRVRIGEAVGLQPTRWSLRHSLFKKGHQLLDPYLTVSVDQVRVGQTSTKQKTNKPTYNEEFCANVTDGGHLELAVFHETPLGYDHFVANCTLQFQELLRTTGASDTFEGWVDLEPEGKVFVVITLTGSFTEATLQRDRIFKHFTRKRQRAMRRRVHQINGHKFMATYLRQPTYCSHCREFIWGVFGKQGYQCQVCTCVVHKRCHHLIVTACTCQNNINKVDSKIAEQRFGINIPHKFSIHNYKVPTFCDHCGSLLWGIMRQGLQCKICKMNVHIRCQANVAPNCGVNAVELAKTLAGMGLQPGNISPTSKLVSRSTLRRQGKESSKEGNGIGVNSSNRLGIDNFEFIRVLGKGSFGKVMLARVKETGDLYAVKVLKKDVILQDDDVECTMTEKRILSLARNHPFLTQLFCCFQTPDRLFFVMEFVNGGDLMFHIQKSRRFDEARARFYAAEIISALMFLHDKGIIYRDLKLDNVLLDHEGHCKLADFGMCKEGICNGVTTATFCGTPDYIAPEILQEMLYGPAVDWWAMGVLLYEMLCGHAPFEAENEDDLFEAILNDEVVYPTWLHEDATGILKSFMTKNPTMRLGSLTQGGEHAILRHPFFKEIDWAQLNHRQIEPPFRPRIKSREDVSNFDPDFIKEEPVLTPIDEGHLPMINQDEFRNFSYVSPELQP
Chain of SNARK/NUAK2 (Q9H093 whole entry): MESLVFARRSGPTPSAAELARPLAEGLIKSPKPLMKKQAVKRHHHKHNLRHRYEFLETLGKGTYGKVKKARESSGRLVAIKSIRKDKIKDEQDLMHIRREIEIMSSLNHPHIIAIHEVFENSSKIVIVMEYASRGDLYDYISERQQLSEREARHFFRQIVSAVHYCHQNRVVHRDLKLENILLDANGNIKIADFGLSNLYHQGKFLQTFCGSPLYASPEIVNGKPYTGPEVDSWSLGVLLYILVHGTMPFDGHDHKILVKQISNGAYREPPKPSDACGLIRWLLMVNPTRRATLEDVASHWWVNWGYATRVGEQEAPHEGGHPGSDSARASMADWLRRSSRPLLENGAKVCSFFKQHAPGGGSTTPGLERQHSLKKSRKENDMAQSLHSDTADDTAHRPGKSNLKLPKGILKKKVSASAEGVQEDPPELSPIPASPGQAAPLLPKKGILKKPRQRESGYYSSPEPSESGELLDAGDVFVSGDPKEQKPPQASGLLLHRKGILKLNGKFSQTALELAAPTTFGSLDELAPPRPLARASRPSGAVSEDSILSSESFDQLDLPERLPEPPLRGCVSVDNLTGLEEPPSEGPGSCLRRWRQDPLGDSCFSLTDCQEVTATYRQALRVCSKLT
Chain of FAK/PTK2 (Q05397 whole entry): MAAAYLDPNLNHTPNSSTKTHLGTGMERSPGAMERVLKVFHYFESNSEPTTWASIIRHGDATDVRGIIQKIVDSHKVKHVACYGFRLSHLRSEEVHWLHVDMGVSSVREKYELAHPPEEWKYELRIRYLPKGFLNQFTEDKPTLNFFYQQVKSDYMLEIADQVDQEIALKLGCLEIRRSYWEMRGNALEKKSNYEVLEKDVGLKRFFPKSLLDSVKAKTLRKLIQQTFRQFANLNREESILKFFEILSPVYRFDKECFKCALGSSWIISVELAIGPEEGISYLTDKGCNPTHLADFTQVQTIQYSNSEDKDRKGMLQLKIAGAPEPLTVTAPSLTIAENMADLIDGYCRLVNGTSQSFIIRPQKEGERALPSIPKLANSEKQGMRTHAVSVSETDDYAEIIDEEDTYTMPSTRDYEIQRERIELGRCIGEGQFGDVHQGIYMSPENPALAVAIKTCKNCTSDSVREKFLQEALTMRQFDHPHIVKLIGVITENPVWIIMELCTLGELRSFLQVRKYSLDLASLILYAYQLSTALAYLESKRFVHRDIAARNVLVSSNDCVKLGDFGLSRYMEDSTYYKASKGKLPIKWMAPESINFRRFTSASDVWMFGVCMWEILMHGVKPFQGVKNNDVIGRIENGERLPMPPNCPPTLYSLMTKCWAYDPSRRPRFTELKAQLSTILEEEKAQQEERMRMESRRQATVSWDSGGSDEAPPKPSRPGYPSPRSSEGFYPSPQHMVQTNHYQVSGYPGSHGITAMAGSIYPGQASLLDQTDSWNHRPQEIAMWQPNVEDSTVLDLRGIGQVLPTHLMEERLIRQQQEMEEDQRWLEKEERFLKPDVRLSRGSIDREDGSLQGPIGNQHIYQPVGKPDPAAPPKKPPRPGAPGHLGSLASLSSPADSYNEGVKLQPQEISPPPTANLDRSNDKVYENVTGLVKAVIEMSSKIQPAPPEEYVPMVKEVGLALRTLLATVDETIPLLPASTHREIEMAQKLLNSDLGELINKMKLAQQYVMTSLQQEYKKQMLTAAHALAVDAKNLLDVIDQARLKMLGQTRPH
Chain of HIPK3 (Q9H422 whole entry): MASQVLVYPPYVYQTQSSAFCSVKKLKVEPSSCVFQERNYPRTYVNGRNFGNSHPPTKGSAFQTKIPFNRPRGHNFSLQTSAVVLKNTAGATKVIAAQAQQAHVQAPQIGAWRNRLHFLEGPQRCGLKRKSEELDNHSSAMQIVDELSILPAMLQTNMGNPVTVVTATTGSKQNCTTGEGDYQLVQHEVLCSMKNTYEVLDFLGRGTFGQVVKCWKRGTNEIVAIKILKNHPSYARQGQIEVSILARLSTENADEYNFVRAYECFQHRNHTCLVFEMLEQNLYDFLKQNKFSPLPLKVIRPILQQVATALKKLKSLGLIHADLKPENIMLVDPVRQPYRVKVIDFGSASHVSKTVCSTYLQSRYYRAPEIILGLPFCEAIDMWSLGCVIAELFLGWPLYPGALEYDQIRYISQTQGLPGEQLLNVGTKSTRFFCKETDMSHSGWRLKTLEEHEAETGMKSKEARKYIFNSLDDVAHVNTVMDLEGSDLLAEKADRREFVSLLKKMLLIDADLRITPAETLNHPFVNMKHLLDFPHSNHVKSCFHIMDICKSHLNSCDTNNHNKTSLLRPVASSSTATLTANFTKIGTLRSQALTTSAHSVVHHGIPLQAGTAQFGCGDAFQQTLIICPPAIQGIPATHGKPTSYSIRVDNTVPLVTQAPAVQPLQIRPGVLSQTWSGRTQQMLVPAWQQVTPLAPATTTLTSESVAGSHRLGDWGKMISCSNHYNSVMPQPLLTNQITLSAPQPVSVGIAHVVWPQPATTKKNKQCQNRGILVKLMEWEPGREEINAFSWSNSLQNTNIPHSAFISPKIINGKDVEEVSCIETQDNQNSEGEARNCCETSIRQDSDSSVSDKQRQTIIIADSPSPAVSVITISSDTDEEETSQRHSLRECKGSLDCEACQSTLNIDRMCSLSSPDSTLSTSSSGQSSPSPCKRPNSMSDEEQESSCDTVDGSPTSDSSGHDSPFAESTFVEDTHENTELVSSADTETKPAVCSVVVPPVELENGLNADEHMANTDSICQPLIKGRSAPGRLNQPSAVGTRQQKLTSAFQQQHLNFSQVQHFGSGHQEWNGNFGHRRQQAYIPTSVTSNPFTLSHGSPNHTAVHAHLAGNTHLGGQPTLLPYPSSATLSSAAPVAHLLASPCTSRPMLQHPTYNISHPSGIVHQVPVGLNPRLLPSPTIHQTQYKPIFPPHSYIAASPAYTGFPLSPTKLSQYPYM
Chain of MAPKAPK5/PRAK (Q8IW41 whole entry): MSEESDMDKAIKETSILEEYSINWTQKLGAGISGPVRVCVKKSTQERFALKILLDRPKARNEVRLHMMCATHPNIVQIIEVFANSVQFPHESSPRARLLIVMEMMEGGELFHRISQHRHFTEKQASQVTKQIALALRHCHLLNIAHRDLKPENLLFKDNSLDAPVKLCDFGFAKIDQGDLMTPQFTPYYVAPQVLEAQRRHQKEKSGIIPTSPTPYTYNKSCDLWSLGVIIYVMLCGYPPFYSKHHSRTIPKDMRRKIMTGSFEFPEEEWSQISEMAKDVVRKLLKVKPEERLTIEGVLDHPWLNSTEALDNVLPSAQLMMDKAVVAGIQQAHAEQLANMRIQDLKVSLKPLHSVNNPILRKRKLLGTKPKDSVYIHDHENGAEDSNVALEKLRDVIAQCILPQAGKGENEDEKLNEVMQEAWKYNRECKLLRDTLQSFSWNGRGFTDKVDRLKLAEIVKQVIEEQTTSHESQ
Chain of TRKB (Q16620 32-822): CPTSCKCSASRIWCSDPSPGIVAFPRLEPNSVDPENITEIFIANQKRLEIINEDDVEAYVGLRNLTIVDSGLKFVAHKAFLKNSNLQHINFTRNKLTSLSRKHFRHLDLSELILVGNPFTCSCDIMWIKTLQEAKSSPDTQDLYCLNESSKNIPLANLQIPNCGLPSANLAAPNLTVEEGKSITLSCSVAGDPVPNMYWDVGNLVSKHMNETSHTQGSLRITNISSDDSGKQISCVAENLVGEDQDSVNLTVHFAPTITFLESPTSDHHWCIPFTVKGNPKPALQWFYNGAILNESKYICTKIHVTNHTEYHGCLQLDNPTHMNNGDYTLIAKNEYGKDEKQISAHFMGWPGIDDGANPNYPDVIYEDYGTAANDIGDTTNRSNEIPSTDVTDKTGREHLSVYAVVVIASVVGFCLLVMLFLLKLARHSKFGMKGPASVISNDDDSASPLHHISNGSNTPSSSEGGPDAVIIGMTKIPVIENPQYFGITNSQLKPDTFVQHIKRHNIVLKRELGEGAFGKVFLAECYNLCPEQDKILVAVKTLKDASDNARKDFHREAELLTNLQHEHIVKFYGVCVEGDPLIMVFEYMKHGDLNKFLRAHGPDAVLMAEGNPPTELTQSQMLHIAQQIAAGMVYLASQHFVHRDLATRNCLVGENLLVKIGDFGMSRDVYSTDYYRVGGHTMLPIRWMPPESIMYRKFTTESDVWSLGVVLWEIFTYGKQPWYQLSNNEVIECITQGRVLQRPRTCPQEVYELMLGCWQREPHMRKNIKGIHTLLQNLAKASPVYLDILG

SMILES: CCn1cnc2c(NCc3ccc(-c4ccccn4)nc3)nc(-c3ccc(N)nc3)nc21 [Example 53, N-([2,2′-bipyridin]-5-ylmethyl)-2-(6-aminopyridin-3-yl)-9-ethyl-9H-purin-6-amine]
- remaining activity at 10 µM [1]: 5.76%
- remaining activity at 10 µM [2]: 59.1%
- remaining activity at 10 µM [3]: 79.5%
- remaining activity at 10 µM [4]: 88.4%
- remaining activity at 10 µM [5]: 72.6%
- remaining activity at 10 µM [6]: 91.3%
- remaining activity at 10 µM [7]: 58%
- remaining activity at 10 µM [8]: 103%
- mouse body weight [9]: without any change in mouse weight
- remaining activity at 10 µM [10]: 79.3%
- remaining activity at 10 µM [11]: 87.9%
- remaining activity at 10 µM [12]: 87.3%
- remaining activity at 10 µM [13]: 80.8%
- remaining activity at 10 µM [14]: 59%
- remaining activity at 10 µM [15]: 16.5%
- remaining activity at 10 µM [16]: 84.9%
- remaining activity at 10 µM [17]: 52.4%
- remaining activity at 10 µM [18]: 54.8%
- remaining activity at 10 µM [19]: 79.4%
- remaining activity at 10 µM [20]: 68.1%
- remaining activity at 10 µM [21]: 96.6%
- remaining activity at 10 µM [22]: 88.3%
- remaining activity at 10 µM [23]: 1.19%
- remaining activity at 10 µM [24]: 28.8%
- remaining activity at 10 µM [25]: 84.7%
- remaining activity at 10 µM [26]: 13.7%
- remaining activity at 10 µM [27]: 79%
- remaining activity at 10 µM [28]: 79.5%
- remaining activity at 10 µM [29]: 94.1%
- remaining activity at 10 µM [30]: 67.8%
- remaining activity at 10 µM [31]: 52.5%
- remaining activity at 10 µM [32]: 55%
- remaining activity at 10 µM [33]: 76%
- remaining activity at 10 µM [34]: 41.4%
- remaining activity at 10 µM [35]: 10.2%
